These are literature values, as cited in US6720472B2, “HMGI proteins in cancer and obesity” (University of Medicine and Dentistry of New Jersey, priority 1996, dated 2004).

In one data set the test system is HMG-I proteins. The conditions noted are these: in vitro, A T-rich DNA.
In data set [1] the test system is ascites tumors [Ehrlich and sarcoma 180 (S180)].
The test system of data set [2] is solid tumors (Ehrlich carcinoma, S180, Walker carcinoma, and Oberling-Guerin-Guerin myeloma).
The subject of data set [3] is B-DNA dodecamer of sequence C-G-C-G-A-A-T-T-BrC-G-C-G. The note with it: X-ray analysis of the complex.

SMILES strings stand for the structures. “Also recorded” adds a separate entry of the source. Read-outs that look alike come from different tables or passages of the source.

For `CN1CCN(c2ccc3[nH]c(-c4ccc5[nH]c(-c6ccc(O)cc6)nc5c4)nc3c2)CC1` [Hoechst 33258, Hoechst 33258 (bisbenzimide)], the “competition with the BD peptide and the HMG-I proteins for DNA binding” value (shortened to “competition”) in the data set on HMG-I proteins is “compete with the HMGI proteins for binding to AT-rich DNA; also recorded: effectively compete”.

Consider `Cn1cc(NC(=O)c2cc(NC(=O)c3cc(NC=O)cn3C)cn2C)cc1C(=O)NCCC(=N)N` [distamycin A], for which the “inhibition on ascites tumors” value in data set [1] (Ehrlich and sarcoma 180 (S180) ascites tumors) is given as “strong inhibition”. In addition, in data set [1] (Ehrlich ascites tumor), the “mitotic damages of tumor cells” value is given as “induces mitotic damages” and the “mitotic index of the Ehrlich ascites tumor” value is reported as “decrease the mitotic index”. Further, the “competition” value in the data set on HMG-I proteins is listed as “compete with the HMGI proteins for binding to AT-rich DNA”. In addition, in the data set on HMG-I proteins (listed as distamycin), the “competition” value is reported as “effectively compete”. Moreover, the “growth of solid tumors” value in data set [2] is reported as “delays the growth”.

Turning to `Cn1cc(NC(=O)c2cc(NC(=O)CN=C(N)N)cn2C)cc1C(=O)NCCC(=N)N` [netropsin], the “binding site on DNA” value in data set [3] is listed as “binds within the minor groove”. Also, the “competition” value in the data set on HMG-I proteins is reported as “compete with the HMGI proteins for binding to AT-rich DNA; also recorded: effectively compete”.
